Assay results: publication PMC13266999, “Designing Antibiotics with Inherent Resistance to Efflux as a Strategy to Revive Discovery against Multidrug-Resistant Pathogens” (Journal of Medicinal Chemistry, 2026)
In brackets after ≈: the same amount, converted by molar mass.

Legend:
[1] = test system: S. aureus; test: MIC (microbroth dilution); assay type: cell-based, Staphylococcus aureus; conditions: for MIC: Staphylococcus aureus
Method in brief: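 Overnight stationary-phase cultures back-diluted and tested by broth microdilution with 2-fold compound series. MIC is lowest concentration with no visible growth, with OD600 also read. Separate runs included polymyxin B nonapeptide at 30 μg/mL final as outer-membrane permeabilizer.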

[2] = test system: S. aureus; test: Serial passaging, MIC of adapted strains; assay type: cell-based; conditions: Staphylococcus aureus
Description: MICs were performed on the first and 10th passage.

[3] = test system: A. baumannii; test: Mutation frequency and agar MIC; assay type: cell-based; conditions: A118
Description: (§1) Mutation frequencies were performed on solid media at supra-inhibitory concentrations. First, the agar MIC was performed to account for any issues in solubility of compounds in solid media. Agar plates were prepared with 2-fold dilutions of compound.
(§2) For the mutation frequency assay, bacteria from an overnight culture were grown to mid exponential phase in liquid broth, then 100 μL was spread onto an agar plate containing compound at concentrations above the agar MIC. A Miles-Misra was also conducted on an antibiotic-free agar plate to determine the CFU/mL of the starting population. […] The mutation frequency was calculated by dividing the number of colonies on supra inhibitory con-centration plates by the starting population.

[4] = test system: E. coli; test: Mutation frequency and agar MIC; assay type: cell-based; conditions: NCTC 12241
Description: as §1, §2

[5] = test system: S. aureus; test: Mutation frequency and agar MIC; assay type: cell-based
Description: as §1, §2

[6] = Pharmacokinetics; conditions: male, ICR (CD-1), mouse, plasma
Description: Pharmacokinetic studies were performed in male ICR (CD-1) mice obtained from Charles River, UK. […] Blood samples were collected from the caudal vein into anticoagulant-treated capillaries at predetermined time points up to 8 h, with terminal cardiac puncture at 8 h. Plasma samples were stored at −80 °C until analysis. […] A compound-specific LC-MS/MS method was developed for each test article using matrix-matched calibrators following protein precipitation of samples.

Cc1cc(C)nc(N[C@@H]2CCN(c3c(F)cc4c(=O)c(C(=O)O)cn5c4c3OC[C@@H]5C)C2)n1 [Compound 50, (S)-10-((R)-3-((4,6-Dimethylpyrimidin-2-yl)amino)pyrrolidin-1-yl)-9-fluoro-3-methyl-7-oxo-2,3-dihydro-7H-[1,4]oxazino[2,3,4-ij]quinoline-6-carboxylic acid]
MIC ([1]; MRSA / VISA, MRSA VISA (CDC AR-BANK #0216), read-out: MIC): 0.5 µg/mL (≈ 1.1 µM) | MIC ([1]; MRSA / VISA, MRSA VISA (CDC AR-BANK #0217), read-out: MIC): 1 µg/mL (≈ 2.21 µM) | MIC ([1]; MRSA / VISA, MRSA VISA (Mu50), read-out: MIC): 2 µg/mL (≈ 4.41 µM) | MIC ([1]; MRSA / VISA, MRSA VISA Mupirocin-R (CDC #0218), read-out: MIC): 1 µg/mL (≈ 2.21 µM) | MIC ([1]; MRSA, MRSA DAP-NS (ECL 2963621), read-out: MIC): 0.25 µg/mL (≈ 0.551 µM) | MIC ([1]; MRSA, VanA MRSA (VRS1), read-out: MIC): 1 µg/mL (≈ 2.21 µM) | MIC ([1]; MRSA, VanA MRSA (VRS2), read-out: MIC): 0.5 µg/mL (≈ 1.1 µM) | MIC ([1]; MRSA, VanA MRSA (VRS3a), read-out: MIC): 0.5 µg/mL (≈ 1.1 µM) | MIC ([1]; MSSA / VISA, MSSA VISA (CDC #0222), read-out: MIC): 0.03 µg/mL (≈ 0.0662 µM) | MIC ([1]; NCTC13277, NCTC 13277, + 4% albumin, read-out: MIC): 4 µg/mL | MIC ([1]; NCTC13616, NCTC 13616, + 4% albumin, read-out: MIC): 2 µg/mL | MIC ([1]; NRS 3 / VISA, VISA (NRS3), read-out: MIC): 0.5 µg/mL (≈ 1.1 µM) | MIC ([1]; NRS 12 / VISA, VISA (NRS12), read-out: MIC): 0.06 µg/mL (≈ 0.132 µM) | MIC ([1]; NRS 56 / VISA, VISA (NRS56), read-out: MIC): 1 µg/mL (≈ 2.21 µM) | MIC ([1]; NRS72, Sanger-476, NRS72, read-out: MIC): 0.03 µg/mL (≈ 0.0662 µM) | MIC ([1]; NRS157, NRS157, read-out: MIC): 0.03 µg/mL (≈ 0.0662 µM) | MIC ([1]; SA-1199, read-out: MIC): 0.016 µg/mL (≈ 0.0353 µM) | MIC ([1]; SA-1199B (NorA-overexpressing)): 0.016 µg/mL (≈ 0.0353 µM) | MIC ([1]; VRSA, VRSA (ECL 2963646), read-out: MIC): 0.5 µg/mL (≈ 1.1 µM) | MIC ([1]; VanA (VRS11b), read-out: MIC): 2 µg/mL (≈ 4.41 µM) | MIC ([1]; majority of MSSA and MRSA isolates, read-out: MIC): ≤ 0.0312 µg/mL | fold increase in MIC in the presence of 4% albumin ([1]; across the strain panel): 2- to 8 fold | MIC ([2]; 1199B WT): 0.03 µg/mL | MIC ([2]; 1199B adapted to 4 x MIC of Compound 7): ≤ 0.015 µg/mL | MIC ([2]; 1199B adapted to 4 x MIC of Compound 46): 0.125 µg/mL | MIC ([2]; 1199B adapted to 4 x MIC of Compound 50): 0.25 µg/mL | MIC ([2]; 1199B adapted to 4 x MIC of Compound 51): 0.03 µg/mL | MIC ([2]; 1199 WT): 0.015 µg/mL | MIC ([2]; 1199 adapted to 4 x MIC of Compound 7): 0.03 µg/mL | MIC ([2]; 1199 adapted to 4 x MIC of Compound 46): ≤ 0.015 µg/mL | MIC ([2]; 1199 adapted to 4 x MIC of Compound 50): 0.125 µg/mL | MIC ([2]; 1199 adapted to 4 x MIC of Compound 51): ≤ 0.015 µg/mL | MIC ([2]; NCTC13616, NCTC 13616 WT): 0.125 µg/mL | MIC ([2]; NCTC13616, NCTC 13616 adapted to 4 x MIC of Compound 7): 0.5 µg/mL | MIC ([2]; NCTC13616, NCTC 13616 adapted to 4 x MIC of Compound 46): 0.25 µg/mL | MIC ([2]; NCTC13616, NCTC 13616 adapted to 4 x MIC of Compound 50): 0.5 µg/mL | MIC ([2]; NCTC13616, NCTC 13616 adapted to 4 x MIC of Compound 51): 1 µg/mL | Agar MIC [3]: 0.25 µg/mL | Agar MIC [4]: 0.25 µg/mL | Agar MIC ([5]; ATCC 9144): 0.03 µg/mL | Agar MIC ([5]; NCTC 13616): 0.5 µg/mL | AUC(0-inf) ([6]; iv, 5 mg/kg): 33100 ng·h/mL | clearance ([6]; iv, 5 mg/kg): 2.52 mL/min/kg | Cmax ([6]; po, 20 mg/kg): 14500 ng/mL | Tmax ([6]; po, 20 mg/kg): 30 min | bioavailability ([6]; po, 20 mg/kg): 83%
